Results: patent US5635349A, “High-throughput screening assay for inhibitors of nucleic acid polymerases” (Tularik, Inc., priority 1994, dated 1997)
Values joined by “and” are separate entries in the source; they are usually repeats but may differ in a detail not shown here. Identical values can stand only once.

Tests used:
[1] = tested on: Eukaryotic (Yeast) RNA Polymerase II; experiment: Eukaryotic (Yeast) RNA Polymerase II Assay (Promoter Nonspecific); assay type: biochemical, Candida; conditions: positive control at 20 ug/ml, column 12 rows A and B, plates #1 and #2
Description: Eukaryotic (Yeast) RNA Polymerase II Assay (Promoter Nonspecific)
1. Make 1.45× assay buffer from 5× stock (1× final with extract and enzyme added). Add fresh components (PEG, DTT, and MnCl2) to final 1× solution: 50 mM Tris-Acetate at pH 7.8, 50 mM KAc, 0.4 mM ATP, 0.2 mM GTP and UTP, 1 μM CTP, 20 μg BSA/80 μl, PEG 3%, single stranded DNA, 0.2 μg/80 μl, 2 mM DTT, and 2 mM MnCl2. Filtrate using 0.45 μm filter.
2. Make 1× storage buffer (50 mM Tris-Ac, 100 mM KAc, 0.25 mg/ml BSA, 5 mM DTT). Add enzyme and [α-^33 P]-CTP to a concentration such that there are about 80-100 CK cpm of hot CTP in 15 μl, and enough enzyme (from dose response) to get 3000 cpm incorporated.
(§1) 3. Add 60 μl of assay buffer to filterplate.
(§2) 4. Add 8 μl of extract or compounds to filterplate.
5. Add 15 μl hot CTP+enzyme to filterplate. Shake 10 min.
(§3) 6. Incubate 45 min at 34° C.
7. Add 100 μl of DEAE beads (20% slurry in 60% methanol, 20 mM EDTA, 0.02% NP-40). Incubate 1 hr.
8. Wash 5 times (300 μl each) with 0.5M dibasic NaPi, 0.5% NP-40, 10% ethanol.
9. Seal bottom, add 160 μl cocktail, seal top, and count.
Column 1, rows A-D of both plate #1 and #2 are background counts. Column 1, rows E-H of both plate #1 and #2 are counts obtained without the additon of label. Column 12, rows A and B of both plate #1 and #2 are positive controls using the eukaryotic RNA polymerase II inhibitor α-amanitinat 20 ug/ml. […]

[2] = target: E. coli. RNA polymerase holoenzyme supplemented with additional recombinant sigma 70 (Escherichia coli, UniProt P00579+P0A7Z4+P0A8T7+P0A8V2); experiment: Prokaryotic (E. coli) RNA Polymerase Assay (Promoter Specific); assay type: biochemical; conditions: positive control at 20 ug/ml, column 12 rows A and B, plates #1 and #2
E. coli. RNA polymerase holoenzyme supplemented with additional recombinant sigma 70, sequence (P0A7Z4 whole entry): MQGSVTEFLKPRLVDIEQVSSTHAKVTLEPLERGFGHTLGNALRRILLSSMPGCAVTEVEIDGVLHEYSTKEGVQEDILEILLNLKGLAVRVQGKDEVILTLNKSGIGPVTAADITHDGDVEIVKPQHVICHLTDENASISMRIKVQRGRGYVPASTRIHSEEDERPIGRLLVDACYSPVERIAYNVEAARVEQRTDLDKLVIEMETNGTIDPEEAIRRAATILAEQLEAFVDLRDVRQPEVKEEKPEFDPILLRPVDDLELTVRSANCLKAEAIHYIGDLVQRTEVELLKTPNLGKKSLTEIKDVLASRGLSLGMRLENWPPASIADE
E. coli. RNA polymerase holoenzyme supplemented with additional recombinant sigma 70, sequence (P0A8V2 whole entry): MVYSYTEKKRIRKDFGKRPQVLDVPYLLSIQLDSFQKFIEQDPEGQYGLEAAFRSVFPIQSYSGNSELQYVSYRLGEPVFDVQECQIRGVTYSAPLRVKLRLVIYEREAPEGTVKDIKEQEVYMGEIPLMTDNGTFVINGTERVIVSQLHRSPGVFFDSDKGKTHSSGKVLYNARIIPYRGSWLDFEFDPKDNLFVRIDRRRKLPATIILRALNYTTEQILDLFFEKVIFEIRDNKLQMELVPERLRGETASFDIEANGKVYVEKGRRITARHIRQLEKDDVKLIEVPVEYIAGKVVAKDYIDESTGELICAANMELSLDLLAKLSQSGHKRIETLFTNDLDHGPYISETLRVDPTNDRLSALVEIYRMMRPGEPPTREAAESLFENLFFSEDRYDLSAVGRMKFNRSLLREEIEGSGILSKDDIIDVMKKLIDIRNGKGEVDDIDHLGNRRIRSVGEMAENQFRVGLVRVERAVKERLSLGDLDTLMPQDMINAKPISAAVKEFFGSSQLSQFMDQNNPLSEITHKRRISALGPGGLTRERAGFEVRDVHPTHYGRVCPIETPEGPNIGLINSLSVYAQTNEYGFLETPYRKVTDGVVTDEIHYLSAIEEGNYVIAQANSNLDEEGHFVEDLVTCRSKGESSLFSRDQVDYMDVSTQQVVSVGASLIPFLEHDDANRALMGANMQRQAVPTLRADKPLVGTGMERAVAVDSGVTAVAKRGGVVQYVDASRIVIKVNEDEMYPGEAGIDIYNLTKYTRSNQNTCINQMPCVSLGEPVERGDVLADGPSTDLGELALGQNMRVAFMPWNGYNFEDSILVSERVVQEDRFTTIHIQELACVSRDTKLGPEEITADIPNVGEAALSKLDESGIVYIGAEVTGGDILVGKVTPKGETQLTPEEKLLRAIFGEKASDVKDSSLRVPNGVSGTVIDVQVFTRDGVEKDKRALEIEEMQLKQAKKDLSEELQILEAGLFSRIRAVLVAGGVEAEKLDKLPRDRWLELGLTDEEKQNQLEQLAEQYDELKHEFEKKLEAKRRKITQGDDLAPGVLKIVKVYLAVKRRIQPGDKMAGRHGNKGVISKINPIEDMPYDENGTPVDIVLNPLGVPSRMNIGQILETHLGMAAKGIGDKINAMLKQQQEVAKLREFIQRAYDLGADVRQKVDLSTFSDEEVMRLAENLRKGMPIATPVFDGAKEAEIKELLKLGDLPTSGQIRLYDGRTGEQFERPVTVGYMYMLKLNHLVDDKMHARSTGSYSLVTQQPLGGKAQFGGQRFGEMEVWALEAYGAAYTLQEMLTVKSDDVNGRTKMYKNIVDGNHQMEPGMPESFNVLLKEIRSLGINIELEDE
E. coli. RNA polymerase holoenzyme supplemented with additional recombinant sigma 70, sequence (P0A8T7 whole entry): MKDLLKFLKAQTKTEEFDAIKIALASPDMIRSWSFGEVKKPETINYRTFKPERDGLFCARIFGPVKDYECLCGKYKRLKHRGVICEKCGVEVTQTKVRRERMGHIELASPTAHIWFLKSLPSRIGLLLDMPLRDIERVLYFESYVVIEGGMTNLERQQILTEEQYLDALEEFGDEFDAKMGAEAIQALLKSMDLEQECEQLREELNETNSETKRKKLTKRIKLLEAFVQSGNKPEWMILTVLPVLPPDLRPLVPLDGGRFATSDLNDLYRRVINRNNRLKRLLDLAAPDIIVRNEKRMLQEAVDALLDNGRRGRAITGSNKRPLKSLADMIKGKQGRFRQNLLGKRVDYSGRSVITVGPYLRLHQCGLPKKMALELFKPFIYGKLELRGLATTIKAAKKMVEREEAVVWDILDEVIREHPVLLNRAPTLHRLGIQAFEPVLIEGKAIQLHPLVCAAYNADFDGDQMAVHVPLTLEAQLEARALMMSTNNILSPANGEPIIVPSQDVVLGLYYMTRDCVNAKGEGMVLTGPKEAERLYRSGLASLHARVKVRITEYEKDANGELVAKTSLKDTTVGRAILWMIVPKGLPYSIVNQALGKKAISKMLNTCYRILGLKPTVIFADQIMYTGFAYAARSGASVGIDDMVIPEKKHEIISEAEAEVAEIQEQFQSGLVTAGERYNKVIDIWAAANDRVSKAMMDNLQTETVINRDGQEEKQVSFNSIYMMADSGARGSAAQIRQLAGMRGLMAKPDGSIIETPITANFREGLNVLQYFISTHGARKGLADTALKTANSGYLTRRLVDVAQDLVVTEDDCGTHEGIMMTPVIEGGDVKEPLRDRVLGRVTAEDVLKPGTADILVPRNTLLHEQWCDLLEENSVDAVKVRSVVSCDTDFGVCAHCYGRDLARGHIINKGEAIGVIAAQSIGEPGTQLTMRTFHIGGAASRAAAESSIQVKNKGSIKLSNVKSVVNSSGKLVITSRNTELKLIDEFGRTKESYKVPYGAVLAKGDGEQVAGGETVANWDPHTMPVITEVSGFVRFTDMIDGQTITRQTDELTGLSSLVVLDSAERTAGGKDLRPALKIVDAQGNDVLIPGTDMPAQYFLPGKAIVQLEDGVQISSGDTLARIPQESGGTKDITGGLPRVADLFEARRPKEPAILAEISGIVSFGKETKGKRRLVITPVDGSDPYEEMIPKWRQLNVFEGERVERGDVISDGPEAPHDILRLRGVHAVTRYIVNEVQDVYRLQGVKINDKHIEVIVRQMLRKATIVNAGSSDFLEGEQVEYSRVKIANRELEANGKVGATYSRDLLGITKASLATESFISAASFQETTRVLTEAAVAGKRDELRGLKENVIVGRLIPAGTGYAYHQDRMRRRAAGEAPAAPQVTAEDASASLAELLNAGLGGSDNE
E. coli. RNA polymerase holoenzyme supplemented with additional recombinant sigma 70, sequence (P00579 whole entry): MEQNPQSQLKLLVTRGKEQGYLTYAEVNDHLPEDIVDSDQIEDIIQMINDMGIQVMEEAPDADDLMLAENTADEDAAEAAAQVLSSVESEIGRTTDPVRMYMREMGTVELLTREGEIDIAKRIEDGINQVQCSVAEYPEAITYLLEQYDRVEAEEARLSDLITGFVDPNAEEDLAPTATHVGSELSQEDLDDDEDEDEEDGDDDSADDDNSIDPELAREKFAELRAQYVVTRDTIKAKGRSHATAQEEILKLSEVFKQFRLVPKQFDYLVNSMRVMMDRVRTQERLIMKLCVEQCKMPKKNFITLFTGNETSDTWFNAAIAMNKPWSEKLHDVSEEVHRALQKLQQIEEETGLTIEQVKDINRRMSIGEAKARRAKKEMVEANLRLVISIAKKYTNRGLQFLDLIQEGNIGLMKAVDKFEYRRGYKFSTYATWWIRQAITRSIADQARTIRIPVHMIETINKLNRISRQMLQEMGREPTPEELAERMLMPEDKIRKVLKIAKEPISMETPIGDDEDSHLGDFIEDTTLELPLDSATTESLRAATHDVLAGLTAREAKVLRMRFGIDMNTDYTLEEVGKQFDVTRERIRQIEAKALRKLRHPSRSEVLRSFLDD
Excerpt: Prokaryotic (E. coli) RNA Polymerase Assay (Promoter Specific)
In this example, the targeted polymerase is the E. coli. RNA polymerase holoenzyme (α2 ββ'[…] ) supplemented with additional recombinant sigma 70 to increase the percentage of promoter specific transcription over non-specific elongation. GTP is omitted from the assay mixture. The substrate is a pBR-based plasmid with sigma 70, -10+-30 recognition sequences and a 260 nt G-free cassette
1. Make 1.45× assay buffer from 5× stock (1× final with extract and enzyme added). Add fresh components (polyethyleneglycol (PEG), dithiothreitol (DTT), and DNA) to final 1x solution; 50 mM Tris-Ac at pH 7.8, 100 μm ATP, 100 μM UTP, 1 μM CTP, 20 μg Bovine Serum Albumin/80 μl, PEG 3%, plasmid DNA template (described above), 0.3-0.5 μg/80 μl (from dose response), 2 mM DTT. Filter using 0.45 μm filter.
2. Make 1× storage buffer (50 mM Tris-Ac, 100 mM KAc, 100 mM MgCl2, 0.25 mg/ml BSA, 5 mM DTT). Add enzyme and [[…]]-CTP to a concentration such that there are about 80-100K cpm CTP in 15 μl, and enough enzyme (from dose response) to get 3000 cpm incorporated.
as §1, §2
5. Add 15 μl of ^33 P CTP+enzyme to filterplate. Shake 10 min.
as §3
7. Add 100 μl of DEAE Sephacell (Pharmacia) beads (20% slurry in 60% methanol, 20 mM EDTA, 0.02% NP-40). […]

SMILES | CPM A (label incorporated into transcript) [1] | CPM A (label incorporated into transcript) [2]
CCC(C)C1NC(=O)CNC(=O)C2Cc3c([nH]c4cc(O)ccc34)[S+]([O-])CC(NC(=O)CNC1=O)C(=O)NC(CC(N)=O)C(=O)N1CC(O)CC1C(=O)NC(C(C)C(O)CO)C(=O)N2 (stereo not drawn) [α-amanitin] | 6477.00 CPM and 6882.00 CPM and 6999.00 CPM and 7028.50 CPM | –
CO[C@H]1/C=C/O[C@@]2(C)Oc3c(C)c(O)c4c(O)c(c(/C=N/N5CCN(C)CC5)c(O)c4c3C2=O)NC(=O)/C(C)=C\C=C\[C@H](C)[C@H](O)[C@@H](C)[C@@H](O)[C@@H](C)[C@H](OC(C)=O)[C@@H]1C [rifampin] | – | 717.00 CPM and 578.50 CPM and 452.50 CPM and 605.50 CPM
